In this experiment the target is T1, PDGF receptor (Rattus norvegicus, UniProt Q05030).
T1 construct: cultured rat mesangial cells which are known to have the PDGF receptor; endogenous in cells; host or cells: primary mesangial cells cultured from glomeruli of Wistar-Kyoto rats (Charles River Japan), more than 5 passages
T1 sequence (Q05030 32-1097): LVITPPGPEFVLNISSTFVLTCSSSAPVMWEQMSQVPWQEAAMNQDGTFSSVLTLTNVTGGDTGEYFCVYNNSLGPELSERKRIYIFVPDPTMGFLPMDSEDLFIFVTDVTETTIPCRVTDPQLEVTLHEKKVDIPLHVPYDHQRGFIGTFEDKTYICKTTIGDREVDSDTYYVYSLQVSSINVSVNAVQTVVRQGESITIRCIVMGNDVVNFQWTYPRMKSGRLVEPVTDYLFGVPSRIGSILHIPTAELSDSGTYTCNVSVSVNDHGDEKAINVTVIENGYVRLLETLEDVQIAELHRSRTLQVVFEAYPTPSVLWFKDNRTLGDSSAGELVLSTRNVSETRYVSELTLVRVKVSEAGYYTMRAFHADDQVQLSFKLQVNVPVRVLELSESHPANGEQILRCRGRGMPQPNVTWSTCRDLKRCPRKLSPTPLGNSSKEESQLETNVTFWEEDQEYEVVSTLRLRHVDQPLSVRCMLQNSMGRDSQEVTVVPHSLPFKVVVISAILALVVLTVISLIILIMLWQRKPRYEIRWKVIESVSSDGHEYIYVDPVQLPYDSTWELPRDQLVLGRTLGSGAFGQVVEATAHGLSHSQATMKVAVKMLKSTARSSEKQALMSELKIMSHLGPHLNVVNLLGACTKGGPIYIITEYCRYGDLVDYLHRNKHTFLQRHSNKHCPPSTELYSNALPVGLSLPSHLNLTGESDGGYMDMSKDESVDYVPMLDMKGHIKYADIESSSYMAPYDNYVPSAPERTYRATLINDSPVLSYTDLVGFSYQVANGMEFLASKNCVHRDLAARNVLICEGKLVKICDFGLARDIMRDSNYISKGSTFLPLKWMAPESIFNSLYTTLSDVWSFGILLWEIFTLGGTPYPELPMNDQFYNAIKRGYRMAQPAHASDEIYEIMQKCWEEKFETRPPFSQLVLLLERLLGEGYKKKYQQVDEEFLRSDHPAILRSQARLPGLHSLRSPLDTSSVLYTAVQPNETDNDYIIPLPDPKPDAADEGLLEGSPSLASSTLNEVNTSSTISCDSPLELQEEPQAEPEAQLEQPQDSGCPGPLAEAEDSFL
The experiment is described as follows: PDGF receptor autophosphorylation inhibition in cultured rat mesangial cells. The following applies: PDGF-BB 50 ng/ml. It counts as cell-based. As for the experimental part:
1. Cultivation of rat mesangial cells
The glomerulus-derived adhesive cells were subcultured several times to obtain mesangial cells. The mesangial cells subcultured more than 5 passages were used for the assay.
2.Evaluation of PDGF receptor autophosphorylation inhibition
The mesangial cells were seeded in 24-well flat-bottom microtiter plates and then cultured in the medium containing 10% FCS for 2 days. When the cells were grown to about 3×10^4 cells per well, the medium was changed to the medium containing 0.5% FCS, the cultivation was continued for another 3 days, and then cell growth was arrested. The culture medium was removed, the adhered cells were washed with 500 μl of the medium, and 250 μl of the medium containing 0.1% bovine serum albumin (hereinafter abbreviated to BSA) was then added. A test drug dissolved in 1.38 μl of dimethyl sulfoxide (hereinafter abbreviated to DMSO) was added to this culture medium, and the admixture was incubated at 37° C. for 1 hour. Recombinant human platelet-derived growth factor BB chain (hereinafter abbreviated to PDGF-BB) was dissolved in the medium containing 0.1% BSA, 25 μl per well of the solution was added at final 50 ng/ml, and the incubation was continued at 37° C. for 10 minutes. […] The cells were allowed to stand at 4° C. for 30 minutes for lysis, and the resulting solution was thoroughly admixed with an equal amount of Tris-buffered physiological saline containing 1% sodium dodecyl sulfate (hereinafter abbreviated to SDS). […] After the electrophoresis, proteins in the gel were electrically transferred to a PVDF filter, which was then subjected to Western blotting using monoclonal antibodies against phosphotyrosine. Bands of PDGF receptor (molecular weight: about 180 Kda) which were autophosphorylated due to the addition of PDGF-BB were quantitated by a densitometer. Autophosphorylation rates for individual wells with drugs were calculated by setting measurements for PDGF receptor autophosphorylation in the wells without drugs in the presence and absence of PDGF-BB as 100% and 0%, respectively.
A word on the IC50: it is the point on the concentration scale where inhibition reaches its midpoint. The compound `COc1cc2nccc(Oc3ccc(NC(=O)Nc4ccccc4N)cc3)c2cc1OC` [Compound 169, N-(2-Aminophenyl)-N'-{4-[(6,7-dimethoxy-4-quinolyl)oxy]phenyl}urea] came in with a half-inhibitory concentration (IC50) of 4 nM. With `COc1cc2nccc(Oc3ccc(NC(=O)Nc4ccc(SC)cc4)cc3)c2cc1OC` [Compound 163], the half-inhibitory concentration (IC50) was 5 nM. In the case of `CCCCOc1ccc(C(=O)Nc2ccc(Oc3ccnc4cc(OC)c(OC)cc34)cc2)cc1` [Compound 74, N-{4-[(6,7-Dimethoxy-4-quinolinyl)oxy]phenyl}-(4-butoxyphenyl)carboxamide] it was 340 nM.

The compound `COc1cc2nccc(Oc3ccc(NC(=O)NC(C)c4cccc5ccccc45)cc3)c2cc1OC` (centres unmarked) [Compound 231, N-{4-[(6,7-dimethoxy-4-quinolyl)oxy]phenyl)-N'-[1-(1-naphthyl)ethyl]urea] yielded an IC50 of 19 nM. `CCCCc1ccc(NC(=O)Nc2ccc(Oc3ccnc4cc(OC)c(OC)cc34)cc2)cc1` [Compound 47, N-(4-Butylphenyl)-N'-{4-[(6,7-dimethoxy-4-quinolinyl)oxy]phenyl}urea] returned an IC50 of 43 nM. Then `COc1cc(NC(=O)Nc2ccc(Oc3ccnc4cc(OC)c(OC)cc34)cc2)cc(OC)c1` [Compound 259, N-(3,5-Dimethoxyphenyl)-N'-{4-[(6,7-dimethoxy-4-quinolyl)oxy]phenyl}urea], with 5 nM; and `COc1cc2nccc(Oc3ccc(NC(=O)NCc4ccccn4)cc3)c2cc1OC` [Compound 247, N-(4-[(6,7-Dimethoxy-4-quinolyl)oxy]phenyl)-N'-(2-pyridylmethyl)urea], with 9 nM. Then `COc1cc2nccc(Oc3ccc(NC(=O)Nc4ccccc4C(C)C)cc3)c2cc1OC` [Compound 166, N-(2-Isopropylphenyl)-N'-{4-[(6,7-dimethoxy-4-quinolyl)oxy]phenyl}urea], with 11 nM. As for `COc1cc2nccc(Oc3ccc(NC(=O)Nc4ccccc4O)cc3)c2cc1OC` [Compound 281, N-(2-Hydroxyphenyl)-N'-{4-[(6,7-dimethoxy-4-quinolyl)oxy]phenyl}urea], inhibition was half-maximal at 12 nM (IC50). The IC50 values of the last two compounds are within 1.5-fold of each other. Turning to “N-(2-Chloro-3-methylphenyl)-N'-{4-[(6,7-dimethoxy-4-quinolyl)oxy]phenyl}urea [Compound 243]”, half-maximal inhibition (IC50) required 14 nM. For `COc1ccc(NC(=O)Nc2ccc(Oc3ccnc4cc(OC)c(OC)cc34)cc2)cc1OC` [Compound 198, N-(3,4-Dimethoxyphenyl)-N'-{4-[(6,7-dimethoxy-4-quinolyl)oxy]phenyl}urea], half-maximal inhibition (IC50) required 11 nM.

On to `COc1cc2nccc(Oc3ccc(NC(=O)Nc4cccc(O)c4)cc3)c2cc1OC` [Compound 282, N-(3-Hydroxyphenyl)-N'-{4-[(6,7-dimethoxy-4-quinolyl)oxy]phenyl}urea], for which 8 nM corresponded to half-maximal inhibition (IC50). This IC50 and that of the compound before are within 1.5-fold of each other. With `COc1cc2nccc(Oc3ccc(NC(=O)NCc4cccnc4)cc3)c2cc1OC` [Compound 249, N-(4-[(6,7-Dimethoxy-4-quinolyl)oxy]phenyl)-N'-(3-pyridylmethyl) urea], the IC50 was 41 nM. In the case of `COc1cc2nccc(Oc3ccc(NC(=O)Nc4cccc5ccccc45)cc3)c2cc1OC` [Compound 174, N-{4-[(6,7-Dimethoxy-4-quinolyl)oxy]phenyl}-N'-(1-naphthyl)urea] it was 2 nM. In the case of `CCc1ccc(NC(=O)Nc2ccc(Oc3ccnc4cc(OC)c(OC)cc34)cc2)cc1` [Compound 188, N-(4-Ethylphenyl)-N'-{4-[(6,7-dimethoxy-4-quinolyl)oxy]phenyl}urea] it was 6 nM; in that of `COc1cccc(Oc2ccnc3cc(OC)c(OC)cc23)c1` [Compound 2, 6,7-Dimethoxy-4-(3-methoxyphenoxy)quinoline], 440 nM. Compound `COc1cc2nccc(Oc3ccc(NC(=O)Nc4ccc([N+](=O)[O-])cc4Cl)cc3)c2cc1OC` [Compound 224, N-(2-Chloro-4-nitrophenyl)-N'-{4-[(6,7-dimethoxy-4-quinolyl)oxy]phenyl}urea] gave an IC50 of 87 nM. Then `COc1ccccc1NC(=O)Nc1ccc(Oc2ncnc3cc(OC)c(OC)cc23)cc1` [Compound 113, N-{4-[(6,7-Dimethoxy-4-quinazolinyl)oxy]phenyl)-N'-(2-methoxyphenyl)urea], with 4 nM. Then `COc1cc2nccc(Oc3ccc(NC(=O)Nc4ccccc4-c4ccccc4)cc3)c2cc1OC` [Compound 175, N-(2-Biphenyl)-N'-{4-[(6,7-dimethoxy-4-quinolyl)oxy]phenyl}urea], with 6 nM.

For `COc1ccc(NC(=O)Nc2ccc(Oc3ccnc4cc(OC)c(OC)cc34)cc2)c(OC)c1` [Compound 265, N-(2,4-Dimethoxyphenyl)-N'-{4-[(6,7-dimethoxy-4-quinolyl)oxy]phenyl}urea], the IC50 came to 5 nM. This IC50 and that of the compound before are within 1.5-fold of each other. `COc1cc2nccc(Oc3ccc(NC(=O)Nc4ccc(C(=O)c5ccccc5)cc4)cc3)c2cc1OC` [Compound 195, N-{4-[(6,7-Dimethoxy-4-quinolyl)oxy]phenyl}-N'-(4-phenylcarbonylphenyl)urea] returned a 50% inhibitory concentration (IC50) of 79 nM. The compound `COc1cc2nccc(Oc3ccc(NC(=O)NC4CCCCC4)cc3)c2cc1OC` [Compound 253, N-(Cyclohexyl)-N'-{4-[(6,7-dimethoxy-4-quinolyl)oxy]phenyl}urea] registered an IC50 of 7 nM. The compound `COc1cc2nccc(Oc3ccc(NC(=O)Nc4cccc(N)c4)cc3)c2cc1OC` [Compound 172, N-(3-Aminophenyl)-N'-{4-[(6,7-dimethoxy-4-quinolyl)oxy]phenyl}urea] yielded an IC50 of 10 nM. For `COc1cccc(NC(=O)Nc2ccc(Oc3ncnc4cc(OC)c(OC)cc34)cc2)c1` [Compound 114, N-{4-[(6,7-Dimethoxy-4-quinazolinyl)oxy]phenyl}-N'-(3-methoxyphenyl)urea], the concentration for half-maximal inhibition (IC50) is 4 nM. This IC50 lies about 2.5-fold lower than the previous one.

Compound `CCCCNC(=O)Nc1ccc(Oc2ccnc3cc(OC)c(OC)cc23)cc1` [Compound 139, N-n-Butyl-N'-{4-[(6,7-dimethoxy-4-quinolyl)oxy]phenyl}urea] showed an IC50 of 5 nM.

In turn, `COc1cc2nccc(Oc3ccc(NC(=O)Nc4ccc(N)cc4Cl)cc3)c2cc1OC` [Compound 274, N-(4-Amino-2-chlorophenyl)-N'-{4-[(6,7-dimethoxy-4-quinolyl)oxy]phenyl}urea] came in with an IC50 of 36 nM. Compared with the last compound, the IC50 is about 7.2-fold higher. Then `COc1cc2nccc(Oc3ccc(NC(=O)C4CCCCC4)cc3)c2cc1OC` [Compound 63, N-{4-[(6,7-Dimethoxy-4-quinolinyl)oxy]phenyl}-cyclohexanecarboxamide], with 400 nM; and `COc1cc2nccc(Oc3ccc(NC(=O)Nc4ccccc4)cc3)c2cc1OC` [Compound 167, N-{4-[(6,7-Dimethoxy-4-quinolyl)oxy]phenyl}-N'-phenylurea], with 4 nM; and `COc1cc2nccc(Oc3ccc(NC(=O)c4ccc(C(C)=O)cc4)cc3)c2cc1OC` [Compound 68, N-{4-[(6,7-Dimethoxy-4-quinolinyl)oxy]phenyl}-(4-acetylphenyl)carboxamide], with 440 nM.

On to `COc1cc2nccc(Oc3ccc(NC(=O)Nc4ccc(Cl)cc4[N+](=O)[O-])cc3)c2cc1OC` [Compound 238, N-(4-Chloro-2-nitrophenyl)-N'-{4-[(6,7-dimethoxy-4-quinolyl)oxy]phenyl}urea], for which the concentration for half-maximal inhibition (IC50) came out at 16 nM.

`COc1cc2nccc(Oc3ccc(NC(=O)Nc4ccc(C(C)C)cc4)cc3)c2cc1OC` [Compound 51, N-(4-Isopropylphenyl)-N'-{4-[(6,7-dimethoxy-4-quinolinyl)oxy]phenyl}urea]: the half-inhibitory concentration (IC50) stood at 9 nM. `COc1cc2nccc(Oc3ccc(C(=O)c4ccc(N5CCCC5)cc4)cc3)c2cc1OC` [Compound 289, (4-[{6,7-Dimethoxy-4-quinolyl)oxy]phenyl)[4-pyrrolidinophenyl]methanone] came in with a concentration for half-maximal inhibition (IC50) of 32 nM.

As to `COc1cc2nccc(Oc3cccc(C(C)=O)c3)c2cc1OC` [Compound 6], it took 450 nM to reach half-maximal inhibition (IC50).

`COc1cc2nccc(Oc3ccc(NC(=O)c4ccc(Br)cc4)cc3)c2cc1OC` [Compound 75, N-{4-[(6,7-Dimethoxy-4-quinolinyl)oxy]phenyl}-(4-bromophenyl)carboxamide]: inhibition was half-maximal at 180 nM (IC50). Compound `COc1cc2nccc(Oc3ccc(NC(=O)Nc4cccc(OC)c4OC)cc3)c2cc1OC` [Compound 268, N-(2,3-Dimethoxyphenyl)-N'-{4-[(6,7-dimethoxy-4-quinolyl)oxy]phenyl}urea] had an IC50 of 7 nM. Compound `COc1cc2nccc(Oc3ccc(NC(=O)Nc4c(F)cccc4F)cc3)c2cc1OC` [Compound 263, N-(2,6-Difluorophenyl)-N'-{4-[(6,7-dimethoxy-4-quinolyl)oxy]phenyl}urea] displayed an IC50 of 4 nM. This IC50 lies about 1.8-fold lower than the previous one. Take `COc1cc2nccc(Oc3ccc(NC(=O)Nc4ccc(F)c(F)c4F)cc3)c2cc1OC` [Compound 257, N-(2,3,4-Trifluorophenyl)-N'-{4-[(6,7-dimethoxy-4-quinolyl)oxy]phenyl}urea]: the 50% inhibitory concentration (IC50) was determined as 7 nM. In the case of `COc1cc2nccc(Oc3ccc(NC(=O)Nc4cc(F)ccc4F)cc3)c2cc1OC` [Compound 273, N-(2,5-Difluorophenyl)-N'-{4-[(6,7-dimethoxy-4-quinolyl)oxy]phenyl}urea], it took 5 nM to reach half-maximal inhibition (IC50).
